For 2 compounds, drug being delivered and bleeding time results are on record in US20230181624A1, “COMPOSITIONS AND METHODS FOR TREATMENT OF GASTROINTESTINAL BLEEDING” (Intact Therapeutics, Inc., priority 2020, published 2023).

Each structure is given as a SMILES string.

Data set [1] can be described thus: Drug release from solidified Poloxamer 407 thermogel. Format: physicochemical. As to conditions: within 3 hours. An excerpt: The properties of thermogels based on Poloxamer 407 were investigated. Poloxamer 407 has a molecular weight of 12,000 Da and a PEO/PPO ratio of 2:1 by weight, and it is Generally Recognized As Safe (GRAS) by the FDA.
In a further data set the test system is mouse tail. As to the kind of experiment: Mouse tail-snip assay (bleeding time). The format is in vivo. As to conditions: amputated tail submerged in 1.5 ml of test formulation; compared with water. The procedure: A formulation of the invention was tested for the ability to prevent bleeding using a mouse tail-snip assay. A portion of tail one centimeter in length was amputated from an anesthetized mouse, and the remaining portion of the tail was immediately submerged in 1.5 ml of test formulation. Bleeding time was recorded as time from amputation to complete cessation of bleeding. The following formulations were tested: water; a solution of 5% tranexamic acid (TXA) in water; a gelled formulation containing Poloxamer 407 (TDP); and a gelled formulation containing 5% tranexamic acid and TDP. Each formulation was tested on seven animals total over the course of three experiments.
FIG. 8 is a graph showing bleeding time of mouse tails exposed to various formulations in a mouse tail-snip assay. *P<0.05, **P<0.01, ***P<0.001, ****P<0.0001, based on one-way ANOVA with the Tukey post-test.

In turn, `CCN(CC)CC(=O)Nc1c(C)cccc1C` [lidocaine] gave a drug being delivered in data set [1] of roughly 60%.

With `NC[C@H]1CC[C@H](C(=O)O)CC1` [TXA, tranexamic acid], the bleeding time result in the data set on mouse tail is “decrease bleeding time”.
